How the values were obtained:
5'-nucleotidase [1] = target: T1, 5'-nucleotidase (Homo sapiens, UniProt P21589); assay: Inhibition of human recombinant Ecto-5'-nucleotidase
5'-nucleotidase [2] = target: T2, 5'-nucleotidase (Mus musculus, UniProt Q61503); assay: Inhibition of mouse Ecto-5'-nucleotidase
T2 sequence (Q61503 whole entry): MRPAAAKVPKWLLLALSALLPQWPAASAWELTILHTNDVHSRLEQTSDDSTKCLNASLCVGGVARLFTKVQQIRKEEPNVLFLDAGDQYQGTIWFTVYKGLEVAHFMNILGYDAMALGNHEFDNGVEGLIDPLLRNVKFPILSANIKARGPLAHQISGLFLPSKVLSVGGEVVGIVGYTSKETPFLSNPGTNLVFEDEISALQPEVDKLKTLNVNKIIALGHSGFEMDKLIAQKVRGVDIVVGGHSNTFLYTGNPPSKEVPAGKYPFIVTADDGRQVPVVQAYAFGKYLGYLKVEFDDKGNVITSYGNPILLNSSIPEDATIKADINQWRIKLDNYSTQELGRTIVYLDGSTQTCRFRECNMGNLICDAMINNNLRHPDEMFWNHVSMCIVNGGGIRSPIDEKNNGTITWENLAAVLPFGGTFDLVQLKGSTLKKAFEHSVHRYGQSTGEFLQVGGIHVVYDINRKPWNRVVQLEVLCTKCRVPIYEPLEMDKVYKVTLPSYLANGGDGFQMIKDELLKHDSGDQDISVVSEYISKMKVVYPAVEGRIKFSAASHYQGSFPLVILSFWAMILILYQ

5'-nucleotidase [3] = target: T1, 5'-nucleotidase; assay: Inhibition of human recombinant CD73
5'-nucleotidase [4] = target: T1, 5'-nucleotidase; assay: Inhibition of human N-terminal Ecto-5'-nucleotidase
5'-nucleotidase [5] = target: T1, 5'-nucleotidase; assay: Inhibition of human recombinant CD73 in MDA-MB-231 cells at 12.5 ug/ml incubated for 24 hrs by Western blot analysis relative to control; type: cell-based; details: dose 12.5 µg/ml
5'-nucleotidase [6] = target: T1, 5'-nucleotidase; assay: Inhibition of human recombinant CD73 in mouse 4T1 cells at 12.5 ug/ml incubated for 24 hrs by Western blot analysis relative to control; type: cell-based; details: dose 12.5 µg/ml
HeLa [7] = assay: Cytotoxicity against human HeLa cells assessed as inhibition of cell viability at 100 uM measured after 24 hrs by MTT assay; type: functional
[8] = Cytotoxicity against hamster BHK-21 cells assessed as inhibition of cell viability at 100 uM measured after 24 hrs by MTT assay; type: toxicity, cell-based, Mesocricetus auratus; details: read-out: INH
5'-nucleotidase [9] = target: T1, 5'-nucleotidase; assay: Binding affinity to human recombinant Ecto-5'-nucleotidase assessed as inhibition constant
Trichomonas vaginalis = assay: Antiprotozoal activity against Trichomonas vaginalis ATCC 30236 assessed as parasitic growth inhibition measured after 24 hrs by cytometry analysis; type: functional, organism-based; details: ATCC 30236, 24 h
5'-nucleotidase [10] = target: T1, 5'-nucleotidase; assay: Inhibition of N-terminal human Ecto-5'-nucleotidase at 250 uM relative to control
HeLa [11] = assay: Cytotoxicity against human HeLa cells; type: functional, cell-based
5'-nucleotidase [12] = target: T1, 5'-nucleotidase; assay: Inhibition of recombinant CD73 (unknown origin)
5'-nucleotidase [13] = target: T1, 5'-nucleotidase; assay: Inhibition of human CD73
5'-nucleotidase [14] = target: T1, 5'-nucleotidase; assay: Inhibition of human CD73 expressed in A-375 cells; type: cell-based
5'-nucleotidase [15] = target: T3, 5'-nucleotidase (Rattus norvegicus, UniProt P21588); assay: Inhibition of rat Ecto-5'-nucleotidase
T3 sequence (P21588 whole entry): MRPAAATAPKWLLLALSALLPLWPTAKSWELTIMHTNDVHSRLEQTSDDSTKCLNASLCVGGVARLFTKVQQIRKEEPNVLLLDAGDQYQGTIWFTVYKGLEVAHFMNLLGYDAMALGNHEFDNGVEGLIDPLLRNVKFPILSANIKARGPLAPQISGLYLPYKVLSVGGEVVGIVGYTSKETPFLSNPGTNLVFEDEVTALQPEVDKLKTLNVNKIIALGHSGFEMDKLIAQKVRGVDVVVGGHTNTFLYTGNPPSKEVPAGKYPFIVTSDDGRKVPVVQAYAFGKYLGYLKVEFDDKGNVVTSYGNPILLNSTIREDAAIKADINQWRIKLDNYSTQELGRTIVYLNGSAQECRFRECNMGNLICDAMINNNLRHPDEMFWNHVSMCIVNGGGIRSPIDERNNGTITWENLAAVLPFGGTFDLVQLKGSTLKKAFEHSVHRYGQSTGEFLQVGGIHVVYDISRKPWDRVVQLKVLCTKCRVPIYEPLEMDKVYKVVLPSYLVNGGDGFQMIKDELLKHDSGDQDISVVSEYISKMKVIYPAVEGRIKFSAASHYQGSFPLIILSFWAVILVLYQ

[16] = target: T4, Alkaline phosphatase, tissue-nonspecific isozyme (Homo sapiens, UniProt P05186); assay: Inhibition of human TNAP
T4 sequence (P05186 whole entry): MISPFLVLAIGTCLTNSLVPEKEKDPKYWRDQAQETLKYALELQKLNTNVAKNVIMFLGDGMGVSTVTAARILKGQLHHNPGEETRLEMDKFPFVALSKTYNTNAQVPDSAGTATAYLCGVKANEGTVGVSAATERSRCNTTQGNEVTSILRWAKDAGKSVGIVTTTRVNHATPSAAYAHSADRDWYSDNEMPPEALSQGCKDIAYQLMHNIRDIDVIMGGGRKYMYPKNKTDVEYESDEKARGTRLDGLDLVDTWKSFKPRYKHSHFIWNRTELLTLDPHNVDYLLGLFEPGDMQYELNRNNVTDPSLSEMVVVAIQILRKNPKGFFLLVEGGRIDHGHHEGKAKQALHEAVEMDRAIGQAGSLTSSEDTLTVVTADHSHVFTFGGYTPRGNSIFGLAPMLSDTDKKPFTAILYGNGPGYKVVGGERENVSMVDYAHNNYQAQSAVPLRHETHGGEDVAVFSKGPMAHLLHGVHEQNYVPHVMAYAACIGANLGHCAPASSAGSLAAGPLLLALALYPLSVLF

5'-nucleotidase [17] = target: T1, 5'-nucleotidase; assay: Inhibition of human Ecto-5'-nucleotidase in rat C6 cells at 100 uM relative to control; type: cell-based
5'-nucleotidase [18] = target: T1, 5'-nucleotidase; assay: Inhibition of human Ecto-5'-nucleotidase in rat C6 cells at 200 uM relative to control; type: cell-based

T1 sequence (P21589 whole entry): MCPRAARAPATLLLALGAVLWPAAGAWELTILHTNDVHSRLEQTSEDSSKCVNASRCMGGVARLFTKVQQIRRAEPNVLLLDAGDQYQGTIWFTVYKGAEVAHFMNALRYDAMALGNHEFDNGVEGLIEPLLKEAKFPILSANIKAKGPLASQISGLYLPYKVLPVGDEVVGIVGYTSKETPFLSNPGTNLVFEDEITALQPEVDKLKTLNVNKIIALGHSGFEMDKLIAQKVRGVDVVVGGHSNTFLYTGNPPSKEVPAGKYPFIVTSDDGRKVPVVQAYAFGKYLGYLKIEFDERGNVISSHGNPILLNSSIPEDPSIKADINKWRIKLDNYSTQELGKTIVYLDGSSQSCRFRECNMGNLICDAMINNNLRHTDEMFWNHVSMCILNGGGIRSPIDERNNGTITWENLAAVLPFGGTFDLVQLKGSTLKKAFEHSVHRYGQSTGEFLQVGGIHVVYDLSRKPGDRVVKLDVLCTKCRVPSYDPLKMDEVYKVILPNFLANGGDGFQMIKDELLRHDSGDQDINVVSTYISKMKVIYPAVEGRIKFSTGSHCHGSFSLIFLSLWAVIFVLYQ

Q: Which IC50 (5'-nucleotidase [1]) does the source give for `CC(=O)c1cc2ccccc2oc1=O` [3-ACETYLCOUMARIN] here?
A: 4.66 µM

Q: With `O=C(N/N=C/c1cccnc1)c1ccccc1` as the molecule, how does the IC50 (5'-nucleotidase [2]) read?
A: 210 nM

Q: For `O=S1(=O)NC(Nc2cccc3[nH]ncc23)=Nc2c1cc(Cl)c(F)c2O`, which IC50 (5'-nucleotidase [3]) is on record?
A: 0.015 µM

Q: For `CC(=O)c1sc(N/N=C/c2ccc(N(C)C)cc2)nc1C`, which IC50 (5'-nucleotidase [4]) is on record?
A: 320 nM

Q: Which results are given for `C=C[C@]1(C)C[C@@H](OC(=O)CSCCN(CC)CC)[C@]2(C)[C@H](C)CC[C@]3(CCC(=O)[C@H]32)[C@@H](C)[C@@H]1O`?
A: inhibition (5'-nucleotidase [5]): 53.9%; inhibition (5'-nucleotidase [6]): 31.4%

Q: With `CC(=O)c1sc(N/N=C/c2ccc[nH]2)nc1C` as the molecule, how does the IC50 (5'-nucleotidase [4]) read?
A: 320 nM

Q: With `Nc1ncnc2c1ncn2[C@@H]1O[C@H](COC(C(=O)O)P(=O)(O)O)[C@@H](O)[C@H]1O` (stereo not given in full) as the molecule, how does the IC50 (5'-nucleotidase [3]) read?
A: 19 µM

Q: Which IC50 (5'-nucleotidase [4]) does the source give for `FC(F)(F)c1cc(Cl)c2cc(Br)ccc2n1` here?
A: 1720 nM

Q: With `COc1ccc(CN(C)C(=O)Nc2sc3c(c2C(=O)OC(C)(C)C)CCN(Cc2ccccc2)C3)cc1OC` as the molecule, how does the IC50 (5'-nucleotidase [4]) read?
A: 45800 nM

Q: Which inhibition at 100 µM (HeLa [7]) does the source give for `O=C1CNC(=S)N1/N=C/c1ccc(Br)s1` here?
A: 4.31%

Q: What about the cytotoxicity at 24 h, 100 µM [8] of the same molecule?
A: 4.31%

Q: With `C=Cn1cc[n+](Cc2ccc(O)c(C=O)c2)c1` as the molecule, how does the IC50 (5'-nucleotidase [4]) read?
A: 1140 nM

Q: What about the IC50 (5'-nucleotidase [2]) of the same molecule?
A: 1930 nM

Q: With `Cc1ccc(C(=O)N2CCc3cc(-c4nc(NC(=O)CN5CCc6ccccc6C5)sc4C)ccc32)cc1` as the molecule, how does the Ki (5'-nucleotidase [9]) read?
A: 530 nM

Q: Which IC50 (5'-nucleotidase [2]) does the source give for `C/C(=N\NC(=O)c1ccncc1)N1N=C(c2ccc(F)cc2)CC1c1ccccc1` (stereo not given) here?
A: 190 nM

Q: With `CCCC(=O)c1c(O)c2c(c(CC3=C(O)C(C)(CC=C(C)C)C(=O)C(C(=O)C(C)C)=C3O)c1O)OC(C)(C)C=C2` (stereo not given) as the molecule, how does the IC50 (Trichomonas vaginalis) read?
A: 38 µM

Q: For `C/C(=N\NS(=O)(=O)c1ccccc1)c1cc2ccccc2oc1=O`, which IC50 (5'-nucleotidase [1]) is on record?
A: 0.29 µM

Q: For `O=c1c(O)c(-c2ccc(O)c(O)c2)oc2cc(O)cc(O)c12` [QUERCETIN], which IC50 (5'-nucleotidase [4]) is on record?
A: 45300 nM

Q: Which IC50 (5'-nucleotidase [3]) does the source give for `CC1=CC(=O)C2(C=C(c3cc4oc(=O)c5cc(O)c(O)cc5c4c(=O)o3)c3cc(O)c(O)cc32)O1` (stereo not given) here?
A: 6.72 µM

Q: Which inhibition (5'-nucleotidase [10]) does the source give for `COc1c2c(cc3c1C(=O)O[C@H]1[C@@H]3[C@H]3C(=C[C@@H]1O)CCN3C)OCO2` here?
A: 59%

Q: For `O=C1c2cc3c(cc2[C@@H]2[C@H](O)[C@@H](O)C=C4CCN1[C@H]42)OCO3`, which inhibition (5'-nucleotidase [10]) is on record?
A: 88%

Q: With `Cc1ccc(S(=O)(=O)N/N=C/c2coc3ccc(Br)cc3c2=O)cc1` as the molecule, how does the IC50 (HeLa [11]) read?
A: 30.2 µM

Q: Which IC50 (5'-nucleotidase [4]) does the source give for `Fc1cccc(-c2ccc3nc(C(F)(F)F)cc(-c4cccc(F)c4)c3c2)c1` here?
A: 1190 nM

Q: With `COc1ccc(/C=N/NC(=O)c2ccccc2)cc1` as the molecule, how does the IC50 (5'-nucleotidase [2]) read?
A: 13800 nM

Q: For `CCc1ccc2occ(/C=N/NS(=O)(=O)c3ccc(C)cc3)c(=O)c2c1`, which IC50 (HeLa [11]) is on record?
A: 86 µM

Q: Which IC50 (5'-nucleotidase [3]) does the source give for `Cc1cc2c(cc1O)c(=O)oc1cc(/C=C/c3ccc(O)c(O)c3)oc(=O)c12` here?
A: 35.1 µM

Q: With `COc1ccc(-c2ccc3nc(C(F)(F)F)cc(-c4ccc(OC)cc4)c3c2)cc1` as the molecule, how does the IC50 (5'-nucleotidase [4]) read?
A: 1130 nM

Q: With `CC(=O)c1sc(N/N=C/c2cc3ccccc3[nH]2)nc1C` as the molecule, how does the IC50 (5'-nucleotidase [4]) read?
A: 320 nM

Q: Which IC50 (5'-nucleotidase [1]) does the source give for `O=C(CSc1nnc(-c2c[nH]c3ccccc23)n1Cc1ccccc1)NO` here?
A: 6.2 µM

Q: With `O=C(N/N=C/c1ccc(Br)cc1)c1ccccc1` as the molecule, how does the IC50 (5'-nucleotidase [2]) read?
A: 230 nM

Q: For `Cc1ccc(-n2cc(C#N)c3cc4c(=O)oc5ccc(C)cc5c4nc32)cc1`, which IC50 (5'-nucleotidase [4]) is on record?
A: 160 nM

Q: Which results are given for `COc1cccc(COc2ccc(/C=N/N3C(=O)CNC3=S)cc2)c1`?
A: IC50 (5'-nucleotidase [4]): 280 nM; inhibition at 100 µM (HeLa [7]): 4.31%; cytotoxicity at 24 h, 100 µM [8]: 4.31%

Q: For `COc1cc(/C=N/N2C(=O)CNC2=S)cc(OC)c1OC`, which inhibition at 100 µM (HeLa [7]) is on record?
A: 4.31%

Q: And the cytotoxicity at 24 h, 100 µM [8]?
A: 4.31%

Q: With `O=P(O)(O)CP(=O)(O)C[C@@H](O)[C@H]1O[C@@H](n2cc(-c3cc(C(F)(F)F)cc(C(F)(F)F)c3)nn2)[C@H](O)[C@@H]1O` as the molecule, how does the IC50 (5'-nucleotidase [12]) read?
A: 4800 nM

Q: Which IC50 (5'-nucleotidase [13]) does the source give for `O=P(O)(O)COC[C@H]1O[C@@H](n2ncc3c(N4CC5(CCc6ccccc65)C4)nc(Cl)nc32)[C@H](O)[C@@H]1O` here?
A: 0.05 nM

Q: And the IC50 (5'-nucleotidase [14])?
A: 0.051 nM

Q: Which IC50 (5'-nucleotidase [4]) does the source give for `Fc1cccc(-c2ccc3nc(C(F)(F)F)cc(Cl)c3c2)c1` here?
A: 1780 nM

Q: For `O=P(O)(O)CP(=O)(O)C[C@@H](O)[C@H]1O[C@@H](n2cc(-c3ccc4ccccc4c3)nn2)[C@H](O)[C@@H]1O`, which IC50 (5'-nucleotidase [12]) is on record?
A: 860 nM

Q: Which IC50 (5'-nucleotidase [3]) does the source give for `O=c1oc(/C=C/c2ccc(O)c(O)c2)cc2oc3cc(O)c(O)cc3c12` [PHELLIBAUMIN A] here?
A: 17.1 µM

Q: With `Cc1nn(-c2ccccc2)c2nc(-c3ccccc3O)ccc12` as the molecule, how does the IC50 (5'-nucleotidase [4]) read?
A: 25800 nM

Q: What about the IC50 (5'-nucleotidase [15]) of the same molecule?
A: 640 nM

Q: For `COc1cc(/C=N/NC(=O)c2ccccc2)ccc1O`, which IC50 (5'-nucleotidase [2]) is on record?
A: 680 nM

Q: For `O=C(Nc1ccncc1)c1ccc(Cl)cc1`, which IC50 (5'-nucleotidase [4]) is on record?
A: 290 nM

Q: For `O=c1oc2ccccc2cc1-c1csc(/N=C/c2cccc([N+](=O)[O-])c2)n1`, which IC50 [16] is on record?
A: 250 nM

Q: Which inhibition (5'-nucleotidase [17]) does the source give for `CCOC(=O)C1=C(C)NC(=S)NC1c1ccc(N(C)C)cc1` (stereo not given) here?
A: 36%

Q: And the inhibition (5'-nucleotidase [18])?
A: 48%

From ChEMBL document CHEMBL5360533, “Targeting ecto-5'-nucleotidase: A comprehensive review into small molecule inhibitors and expression modulators” (Eur J Med Chem, 2023)
